Results on five molecules are retold here after ChEMBL document CHEMBL1201862, “PubChem BioAssay data set” (2004).

As a reminder, the EC50 is the midpoint of the concentration-response curve. Broadly, the CC50 is the concentration that lowers cell viability or growth by half. The Ki is the dissociation constant of the complex between target and ligand, obtained from inhibition or displacement.

Assay [1] concerns the target Intestinal-type alkaline phosphatase (Homo sapiens, UniProt P09923). Description: activation of human intestinal alkaline phosphatase – biochemical, luminescent, uHTS hits, set 2, dose response (AID 488817).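 Further: potency of activators that raise enzyme activity.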 The class given is functional.
For the next assay, the system named is HeLa. As to the kind of experiment: Cytotoxicity counterscreen assay for transcriptional activators of heat shock protein 70 (Hsp70). [Related pubchem assays: 1203, 1252 ]. The format is functional. Conditions: Homo sapiens. For orientation: A counterscreen serves to expose hits that act by an unwanted route or on another target.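 Further: cells exposed to compound for 16 hours before readout.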
Another assay relates to BJ. Description: cells. The class given is functional, cell-based. As to conditions: Homo sapiens.
Another assay has as its target T1, Protein RecA (Mycobacterium tuberculosis, UniProt P9WHJ3).
T1 sequence (P9WHJ3 whole entry): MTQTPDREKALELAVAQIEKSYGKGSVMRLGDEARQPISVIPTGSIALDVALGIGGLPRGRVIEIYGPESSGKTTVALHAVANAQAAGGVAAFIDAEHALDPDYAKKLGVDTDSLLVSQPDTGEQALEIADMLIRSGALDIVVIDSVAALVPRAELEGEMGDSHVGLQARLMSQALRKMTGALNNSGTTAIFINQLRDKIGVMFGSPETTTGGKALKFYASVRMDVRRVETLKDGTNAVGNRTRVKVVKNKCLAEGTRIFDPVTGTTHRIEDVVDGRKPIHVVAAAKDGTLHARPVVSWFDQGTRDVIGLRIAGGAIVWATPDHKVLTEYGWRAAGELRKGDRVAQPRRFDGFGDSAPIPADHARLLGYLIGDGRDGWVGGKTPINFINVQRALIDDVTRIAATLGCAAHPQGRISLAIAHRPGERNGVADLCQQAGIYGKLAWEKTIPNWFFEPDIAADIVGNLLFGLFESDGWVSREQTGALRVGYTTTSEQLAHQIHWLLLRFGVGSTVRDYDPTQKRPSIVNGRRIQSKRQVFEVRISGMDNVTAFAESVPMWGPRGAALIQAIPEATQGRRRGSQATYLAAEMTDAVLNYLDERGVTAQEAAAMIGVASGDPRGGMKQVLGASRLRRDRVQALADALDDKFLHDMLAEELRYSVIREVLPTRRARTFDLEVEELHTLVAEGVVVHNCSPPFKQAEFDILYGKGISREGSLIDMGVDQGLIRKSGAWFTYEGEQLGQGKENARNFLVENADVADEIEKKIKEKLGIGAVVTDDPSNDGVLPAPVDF
As to the kind of experiment: Fluorescence Cell-Free Homogeneous Dose Retest to Identify Inhibitors of RecA-Intein Splicing Activity. [Related pubchem assays (depositor defined):AID2097, AID2223, AID489010, AID492950]. The format is functional.

Assay [2] can be described thus: alpha-synuclein stem-loop luciferase translation blockers – H4 neuroglioma cells, luminescence, confirmation (AID 1988). The class given is functional, cell-based.
In assay [3] the target is Multidrug resistance protein CDR2 (Candida albicans (strain SC5314 / ATCC MYA-2876) (Yeast), UniProt P78595). As to the kind of experiment: inhibition of Nile Red efflux via Candida CDR2 – S. cerevisiae AD1-8u, singleplex, Cherry Pick1 hits, dose response (AID 588604). The class given is functional.
Sequence of Multidrug resistance protein CDR2 (P78595 whole entry): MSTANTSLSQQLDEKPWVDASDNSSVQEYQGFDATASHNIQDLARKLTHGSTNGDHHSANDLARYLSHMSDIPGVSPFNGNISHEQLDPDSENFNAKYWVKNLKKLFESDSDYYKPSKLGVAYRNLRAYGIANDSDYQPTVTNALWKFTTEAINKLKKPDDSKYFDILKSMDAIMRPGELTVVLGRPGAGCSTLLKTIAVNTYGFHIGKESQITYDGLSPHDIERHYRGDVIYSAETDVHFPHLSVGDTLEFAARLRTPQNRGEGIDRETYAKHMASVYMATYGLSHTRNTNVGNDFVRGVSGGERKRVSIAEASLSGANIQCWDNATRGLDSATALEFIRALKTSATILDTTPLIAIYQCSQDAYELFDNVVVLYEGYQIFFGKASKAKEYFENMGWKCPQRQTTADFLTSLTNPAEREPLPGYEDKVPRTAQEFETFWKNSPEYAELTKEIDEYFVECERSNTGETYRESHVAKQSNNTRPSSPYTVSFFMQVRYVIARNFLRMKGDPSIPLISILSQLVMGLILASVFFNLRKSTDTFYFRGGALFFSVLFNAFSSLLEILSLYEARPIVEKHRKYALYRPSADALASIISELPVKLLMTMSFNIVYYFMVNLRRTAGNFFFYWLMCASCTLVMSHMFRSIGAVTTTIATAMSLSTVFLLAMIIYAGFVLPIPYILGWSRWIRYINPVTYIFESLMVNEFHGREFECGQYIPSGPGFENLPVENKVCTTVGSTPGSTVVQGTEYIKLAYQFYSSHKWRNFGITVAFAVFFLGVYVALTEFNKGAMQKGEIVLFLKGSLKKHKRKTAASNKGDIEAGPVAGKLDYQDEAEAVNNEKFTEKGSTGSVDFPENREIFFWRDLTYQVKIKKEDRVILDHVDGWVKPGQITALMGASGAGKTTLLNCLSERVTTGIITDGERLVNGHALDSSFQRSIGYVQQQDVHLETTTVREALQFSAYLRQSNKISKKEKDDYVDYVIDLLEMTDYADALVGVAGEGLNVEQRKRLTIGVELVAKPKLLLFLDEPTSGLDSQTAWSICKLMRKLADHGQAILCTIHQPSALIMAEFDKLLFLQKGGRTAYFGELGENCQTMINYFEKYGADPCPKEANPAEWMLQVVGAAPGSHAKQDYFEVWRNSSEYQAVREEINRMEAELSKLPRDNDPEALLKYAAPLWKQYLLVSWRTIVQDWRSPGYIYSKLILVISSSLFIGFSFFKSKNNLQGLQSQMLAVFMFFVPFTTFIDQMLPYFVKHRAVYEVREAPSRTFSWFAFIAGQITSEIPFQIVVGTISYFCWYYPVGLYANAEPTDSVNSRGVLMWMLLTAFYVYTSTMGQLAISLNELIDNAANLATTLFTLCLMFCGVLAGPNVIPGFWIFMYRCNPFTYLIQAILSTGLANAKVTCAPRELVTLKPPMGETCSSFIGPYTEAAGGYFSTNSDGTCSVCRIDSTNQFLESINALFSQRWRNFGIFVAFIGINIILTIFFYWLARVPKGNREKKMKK
For assay [4], the target named is Multidrug resistance protein CDR1 (Candida albicans, UniProt P43071). As to the kind of experiment: inhibition of Nile Red efflux via Candida CDR1 – S. cerevisiae AD1-8u, singleplex, Cherry Pick1 hits, dose response (AID 588606). The class given is functional.
Assay [5] is described as follows: fluconazole-exposed Candida albicans growth modulators – fluorescence, retest, confirmation (AID 2467). The class given is functional, cell-based.
For assay [6], the target named is ATP-dependent molecular chaperone HSP82 (Candida albicans (strain WO-1) (Yeast), UniProt C4YTQ8). As to the kind of experiment: steroid-induced GRE reporter decrease in yeast – S. cerevisiae, luminescence, Hsp90 inhibitor project, dose response (AID 2400).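 Further: beta-galactosidase luminescence from glucocorticoid response element reporter as proxy for Hsp90 function; inhibitor potency where signal loss means Hsp90 inhibition.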 The class given is functional, cell-based.
Assay [7] in a line: NIH-3T3 fibroblast cytotoxicity, dose response, cytotoxicity control, cell-based, fluorescence, Alamar Blue, secondary assay (AID 2327).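 Further: NIH-3T3 mouse fibroblasts cultured with fluconazole at 8 µg/mL.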 The class given is functional.
Assay [8] deals with Phosphorylase b kinase gamma catalytic chain, liver/testis isoform (Homo sapiens, UniProt P15735). The format is functional.
In assay [9] the target is Tyrosine-protein kinase receptor UFO (Homo sapiens, UniProt P30530). The format is functional.
The target in assay [10] is Ribosomal protein S6 kinase alpha-5 (Homo sapiens, UniProt O75582). The format is functional.
Sequence of Ribosomal protein S6 kinase alpha-5 (O75582 whole entry): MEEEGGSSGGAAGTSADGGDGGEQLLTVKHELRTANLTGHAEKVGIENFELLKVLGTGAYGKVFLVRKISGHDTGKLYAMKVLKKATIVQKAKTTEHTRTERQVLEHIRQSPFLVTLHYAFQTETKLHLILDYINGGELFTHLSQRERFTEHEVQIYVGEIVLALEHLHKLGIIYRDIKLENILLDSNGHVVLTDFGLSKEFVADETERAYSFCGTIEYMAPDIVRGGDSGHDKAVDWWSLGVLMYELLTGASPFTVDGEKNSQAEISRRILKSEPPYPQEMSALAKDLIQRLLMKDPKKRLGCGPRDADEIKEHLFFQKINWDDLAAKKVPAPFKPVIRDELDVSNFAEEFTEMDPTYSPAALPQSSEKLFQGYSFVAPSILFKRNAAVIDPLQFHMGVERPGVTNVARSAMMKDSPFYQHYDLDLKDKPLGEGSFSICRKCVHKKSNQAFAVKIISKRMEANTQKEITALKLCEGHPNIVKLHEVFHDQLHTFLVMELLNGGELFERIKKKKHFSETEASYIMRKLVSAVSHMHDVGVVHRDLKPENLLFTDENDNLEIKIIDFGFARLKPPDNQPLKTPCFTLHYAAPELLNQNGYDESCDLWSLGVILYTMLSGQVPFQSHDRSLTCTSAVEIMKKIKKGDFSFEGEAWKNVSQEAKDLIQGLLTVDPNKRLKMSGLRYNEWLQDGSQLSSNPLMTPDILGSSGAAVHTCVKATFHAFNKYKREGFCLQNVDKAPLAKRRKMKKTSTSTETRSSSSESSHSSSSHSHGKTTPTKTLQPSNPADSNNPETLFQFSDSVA
Assay [11] has as its target Vascular endothelial growth factor receptor 3 (Homo sapiens, UniProt P35916). The class given is functional.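 Further: value from a kinome-wide profiling panel, with FLT4 as the panel member.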
For assay [12], the target named is MAP kinase-activated protein kinase 3 (Homo sapiens, UniProt Q16644). The class given is functional.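 Further: value comes from a kinome-wide profiling panel in which MAPKAPK3 is one of the panel members.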
For assay [13], the target named is Vascular endothelial growth factor receptor 2 (Homo sapiens, UniProt P35968). The format is functional.
The next assay concerns the target LIM domain kinase 1 (Homo sapiens, UniProt P53667). Description: Navigating the Kinome. Panel member name: LIMK1. The class given is functional.
Assay [14] deals with Receptor tyrosine-protein kinase erbB-4 (Homo sapiens, UniProt Q15303). The class given is functional.
For assay [15], the target named is Leucine-rich repeat serine/threonine-protein kinase 2 (Homo sapiens, UniProt Q5S007). The format is functional.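 Further: value from a broad kinome-wide panel profiling study in which LRRK2 was one of the kinases tested.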
Assay [16] has as its target Serine/threonine-protein kinase DCLK1 (Homo sapiens, UniProt O15075). The format is functional.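 Further: affinity for DCLK1 (listed as DCAMKL1) measured as one member of a kinome-wide kinase profiling panel.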
The target of assay [17] is Dual specificity tyrosine-phosphorylation-regulated kinase 3 (Homo sapiens, UniProt O43781). The format is functional.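 Further: measured as one member of a broad kinase panel.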
Sequence of Dual specificity tyrosine-phosphorylation-regulated kinase 3 (O43781 whole entry): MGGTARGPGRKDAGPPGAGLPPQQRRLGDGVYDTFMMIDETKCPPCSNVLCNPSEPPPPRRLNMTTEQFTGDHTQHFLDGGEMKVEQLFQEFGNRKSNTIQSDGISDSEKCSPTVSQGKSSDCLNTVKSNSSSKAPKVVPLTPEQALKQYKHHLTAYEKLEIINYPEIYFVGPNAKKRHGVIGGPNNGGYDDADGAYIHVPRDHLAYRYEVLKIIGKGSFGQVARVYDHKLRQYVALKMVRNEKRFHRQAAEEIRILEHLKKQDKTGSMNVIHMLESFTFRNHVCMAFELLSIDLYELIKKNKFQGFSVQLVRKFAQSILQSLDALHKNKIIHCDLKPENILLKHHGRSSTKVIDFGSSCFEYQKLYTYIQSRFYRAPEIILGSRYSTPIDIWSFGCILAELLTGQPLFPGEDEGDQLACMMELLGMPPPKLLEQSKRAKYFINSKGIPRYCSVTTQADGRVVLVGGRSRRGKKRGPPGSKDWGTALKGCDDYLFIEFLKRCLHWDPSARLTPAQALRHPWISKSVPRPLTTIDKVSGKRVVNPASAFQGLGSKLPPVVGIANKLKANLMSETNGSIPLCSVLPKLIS
The next assay has as its target Focal adhesion kinase 1 (Homo sapiens, UniProt Q05397). The format is functional.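 Further: measured as one member of a kinome panel.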
Another assay deals with Aurora kinase B (Homo sapiens, UniProt Q96GD4). The class given is functional.
Assay [18] has as its target Dual specificity tyrosine-phosphorylation-regulated kinase 1A (Homo sapiens, UniProt Q13627). The class given is functional.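 Further: measured against DYRK1A as one member of a broad kinome profiling panel.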
For assay [19], the target named is Dual specificity protein kinase CLK2 (Homo sapiens, UniProt P49760). The class given is functional.
Assay [20] addresses Casein kinase I isoform alpha (Homo sapiens, UniProt P48729). The format is functional.
In assay [21] the target is BDNF/NT-3 growth factors receptor (Homo sapiens, UniProt Q16620). The format is functional.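 Further: NTRK2 measured as one member of a broad kinome-wide kinase profiling panel.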
Assay [22] deals with Rho-associated protein kinase 1 (Homo sapiens, UniProt Q13464). The format is functional.
Assay [23] has as its target Tyrosine-protein kinase FRK (Homo sapiens, UniProt P42685). The class given is functional.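 Further: FRK tested as one member of a kinome panel.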
In assay [24] the target is RAC-alpha serine/threonine-protein kinase (Homo sapiens, UniProt P31749). The format is functional.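 Further: AKT1 affinity measured as one member of a kinome-wide kinase profiling panel.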
Assay [25] concerns the target Serine/threonine-protein kinase PAK 4 (Homo sapiens, UniProt O96013). The format is functional.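 Further: value obtained within a kinome profiling panel in which PAK4 was one of the panel members.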
The target in assay [26] is Serine/threonine-protein kinase 3 (Homo sapiens, UniProt Q13188). The class given is functional.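 Further: measured as one member of a kinome-wide kinase panel.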
Sequence of Serine/threonine-protein kinase 3 (Q13188 whole entry): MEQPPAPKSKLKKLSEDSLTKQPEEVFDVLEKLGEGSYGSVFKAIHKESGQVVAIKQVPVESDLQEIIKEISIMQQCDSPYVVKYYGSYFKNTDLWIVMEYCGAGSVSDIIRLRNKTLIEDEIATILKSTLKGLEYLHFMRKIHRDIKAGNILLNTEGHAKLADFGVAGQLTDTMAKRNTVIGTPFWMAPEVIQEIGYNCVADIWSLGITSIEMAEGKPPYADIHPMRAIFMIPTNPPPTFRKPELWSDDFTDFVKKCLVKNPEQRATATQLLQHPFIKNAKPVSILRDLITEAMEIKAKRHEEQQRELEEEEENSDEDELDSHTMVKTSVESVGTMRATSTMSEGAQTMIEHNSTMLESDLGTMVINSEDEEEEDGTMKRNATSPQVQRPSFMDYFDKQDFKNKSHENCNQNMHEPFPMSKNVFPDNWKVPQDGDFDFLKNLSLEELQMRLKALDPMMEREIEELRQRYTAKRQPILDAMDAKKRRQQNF

Active and inactive are the calls of the source.

Sequence of Focal adhesion kinase 1 (Q05397 whole entry): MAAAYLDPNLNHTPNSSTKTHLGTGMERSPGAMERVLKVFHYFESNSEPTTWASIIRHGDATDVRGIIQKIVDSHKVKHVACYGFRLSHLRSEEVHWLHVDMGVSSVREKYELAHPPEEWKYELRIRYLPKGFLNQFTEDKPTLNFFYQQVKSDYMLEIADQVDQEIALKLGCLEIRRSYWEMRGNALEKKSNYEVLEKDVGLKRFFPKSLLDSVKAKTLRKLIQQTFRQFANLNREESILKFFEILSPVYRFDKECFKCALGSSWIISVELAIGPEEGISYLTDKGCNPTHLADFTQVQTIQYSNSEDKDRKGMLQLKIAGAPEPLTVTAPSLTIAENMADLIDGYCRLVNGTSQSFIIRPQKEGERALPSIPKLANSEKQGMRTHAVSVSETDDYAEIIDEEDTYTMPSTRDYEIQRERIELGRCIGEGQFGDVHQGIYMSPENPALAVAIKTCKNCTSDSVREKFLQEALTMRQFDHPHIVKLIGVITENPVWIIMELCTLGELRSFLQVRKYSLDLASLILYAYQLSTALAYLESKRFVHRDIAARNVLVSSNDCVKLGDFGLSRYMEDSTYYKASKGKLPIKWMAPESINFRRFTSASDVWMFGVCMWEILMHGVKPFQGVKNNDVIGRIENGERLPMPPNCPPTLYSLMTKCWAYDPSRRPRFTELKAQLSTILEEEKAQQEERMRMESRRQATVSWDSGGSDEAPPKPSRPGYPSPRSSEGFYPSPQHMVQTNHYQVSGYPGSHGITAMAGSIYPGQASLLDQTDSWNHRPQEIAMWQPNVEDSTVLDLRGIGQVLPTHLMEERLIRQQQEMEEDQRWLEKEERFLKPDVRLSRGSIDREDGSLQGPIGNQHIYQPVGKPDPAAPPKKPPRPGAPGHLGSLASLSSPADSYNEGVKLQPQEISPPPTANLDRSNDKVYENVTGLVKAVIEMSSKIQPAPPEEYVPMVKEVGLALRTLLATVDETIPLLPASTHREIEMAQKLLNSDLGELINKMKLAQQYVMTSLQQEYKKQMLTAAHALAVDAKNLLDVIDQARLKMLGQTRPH
Sequence of Tyrosine-protein kinase FRK (P42685 whole entry): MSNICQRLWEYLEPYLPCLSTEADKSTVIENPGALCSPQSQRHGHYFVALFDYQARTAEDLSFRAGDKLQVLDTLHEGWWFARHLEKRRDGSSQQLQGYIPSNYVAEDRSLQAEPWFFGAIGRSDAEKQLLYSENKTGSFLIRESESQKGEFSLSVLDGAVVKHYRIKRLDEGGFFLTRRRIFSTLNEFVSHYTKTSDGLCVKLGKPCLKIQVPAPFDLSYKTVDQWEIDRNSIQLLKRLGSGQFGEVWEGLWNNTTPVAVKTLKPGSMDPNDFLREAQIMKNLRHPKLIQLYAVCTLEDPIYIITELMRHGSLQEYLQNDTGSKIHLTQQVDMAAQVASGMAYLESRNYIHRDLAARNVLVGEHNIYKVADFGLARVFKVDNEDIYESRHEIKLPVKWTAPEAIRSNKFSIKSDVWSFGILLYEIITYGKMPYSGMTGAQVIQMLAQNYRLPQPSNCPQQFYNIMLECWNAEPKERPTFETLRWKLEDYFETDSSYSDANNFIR

As to `O=C(NN1C(=O)CSC1=S)C(=O)NN1C(=O)CSC1=S`, the concentration for a half-maximal effect (EC50) in assay [1] is 12.4 µM (active).
As for `COC(=O)C1CN(C#N)N(c2ccc(Cl)cc2)C12c1ccccc1-c1ccccc12` (configuration not stated), in the assay with HeLa, the CC50 is 3.02 µM (active). The values for the EC50 (with BJ; at Protein RecA; in assay [2]) were 2.9 µM (active), 7 µM (active) and 7.38 µM (active), respectively.
`Cc1ccc2[nH]c(/C(C#N)=C/c3ccc(O)c(O)c3)nc2c1`: the 50% effective concentration (EC50) in assay [3] is 2.17 µM (active); in [4], 13.4 µM (active).
For `CN(C)S(=O)(=O)Oc1cccc(C(=O)Nc2ccc(Cl)c(Cl)c2)c1`, the EC50 in [5] was 0.574 µM (active); in assay [6] it was 18.2 µM (active); in assay [7], > 150 µM (inactive).
In the case of `Nc1noc2cccc(-c3cccc(O)c3)c12`, the Ki was > 5.01 µM (inactive) in assay [8]; > 2 µM (inactive) in assay [9]; 0.631 µM (active) in assay [10]; > 6.31 µM (inactive) in assay [11]; > 10 µM (inactive) in [12]; 7.94 µM (active) in assay [13]. Moreover, the Ki at LIM domain kinase 1 is 2.51 µM (active); in assay [14] it was > 3.98 µM (inactive); in assay [15] it was 3.16 µM (active); in [16], > 10 µM (inactive); in [17], > 6.31 µM (inactive); on Focal adhesion kinase 1 it was > 39.8 µM (inactive). Besides, the Ki was 3.98 µM (active) on Aurora kinase B; 2 µM (active) in [18]; > 20 µM (inactive) in assay [19]; > 5.01 µM (inactive) in assay [20]; > 20 µM (inactive) in [21]; 1 µM (active) in [22]. Also, the Ki in assay [23] was 0.0398 µM (active); in assay [24] it was > 7.94 µM (inactive); in assay [25], > 5.01 µM (inactive); in assay [26] it was 6.31 µM (active).
